# Laboratory results reported in US11547761B1, “Antibody adjuvant conjugates” (The Board of Trustees of the Leland Stanford Junior …, priority 2016, dated 2023).
# Columns and labels:
# [1] = system: human APCs (myeloid cells); test: APC-tumor co-culture / myeloid cell stimulation, surface markers by flow cytometry; format: cell-based; conditions: 18 hours of stimulation
# From the text: (§1) Human antigen presenting cells (APCs) were negatively selected from human peripheral blood mononuclear cells obtained from healthy blood donors (Stanford Blood Center) by density gradient centrifugation using a RosetteSep Human Monocyte Enrichment Cocktail (Stem Cell Technologies) containing monoclonal antibodies against CD2, CD3, CD8, CD19, CD56, CD66b and CD235a. Immature APCs were subsequently purified to >97% purity via negative selection using an EasySep Human Monocyte Enrichment Kit without CD16 depletion containing monoclonal antibodies against CD2, CD3, CD19, CD20, CD56, CD66b, CD123 and CD235a.
# Tumor cells were resuspended in PBS with 0.1% fetal bovine serum (FBS) at 1 to 10×10^6 cells/mL. Cells were subsequently incubated with 2 μM CFSE to yield a final concentration of 1 μM. The reaction was ended after 2 minutes via the addition of 10 mL complete medium with 10% FBS and washed once with complete medium. Cells were either fixed in 2% paraformaldehyde and washed three times with PBS or left unfixed prior to freezing the cells in 10% DMSO, 20% FBS and 70% medium.
# (§2) 2×10^5 APCs were incubated with or without 6.5×10^5 autologous or allogeneic CFSE-labeled tumor cells in 96-well plates (Corning) containing IMDM medium (Gibco) supplemented with 10% fetal bovine serum, 100 U/mL penicillin, 100 μg/mL streptomycin, 2 mM L-glutamine, sodium pyruvate, non-essential amino acids, 50 μM 2-ME and, where indicated, various concentrations of anti-tumor antibody and the indicated adjuvants. Cells and cell-free supernatants were analyzed after 18 hours via flow cytometry.
# as §1, with “[…]” for “CD2, CD3, CD8, CD19, CD56, CD66b”, “[…].” for “CD235a.”, “CD14, CD16, CD40, CD86, CD123,” for “CD2, CD3, CD19, CD20, CD56, CD66b, CD123”
# as §2, with “antibody.” for “anti-tumor antibody and the indicated adjuvants.”
# (§3) 2×10^5 APCs were incubated with or without 6.5×10^5 allogeneic CFSE-labeled tumor cells in 96-well plates (Corning) containing IMDM medium (Gibco) supplemented with 10% fetal bovine serum, 100 U/mL penicillin, 100 μg/mL streptomycin, 2 mM L-glutamine, sodium pyruvate, non-essential amino acids and, where indicated, various concentrations of unconjugated CD20 antibody, and immunoconjugates of the invention were prepared according to the examples above. Cells and cell-free supernatants were analyzed after 18 hours via flow cytometry or ELISA.
# [2] = target: T1, recombinant human CD64 protein (Homo sapiens, UniProt P12314); test: ELISA binding to CD64; conditions: titration
# T1 construct: purchased R&D Systems
# Method: Maxysorp ELISA plates were coated overnight with 1.5 ug/ml recombinant human CD64 protein (R&D Systems). Plates were blocked with PBS containing 1% BSA, and incubated with a titration of Rituximab or Rituximab immunoconjugates (Rituximab BB-01). Bound antibodies were detected with Peroxidase conjugated AffiniPure F(ab′)2 Fragment Goat Anti-Human IgG (Jackson) using TMB color development and absorbance at 450 nm was measured after stopping the reaction.
# [3] = system: human APCs (myeloid cells); test: Cytokine secretion from human APCs / myeloid cells (cell free supernatants); format: cell-based; conditions: 18 hours
# Method: After 18 hours, cell free supernatants were analyzed for cytokine secretion via cytokine bead arrays; n=3. P-values≤0.05 depicted by *, P-values≤0.01 depicted by **, P-values≤0.001 depicted by ***, P-values≤0.0001 depicted by ****.
# as §2, with “Cells and cell-free supernatants were analyzed after 18 hours via flow cytometry.” left out
# While the expression of T cell stimulatory molecules such as CD40, CD86 and HLA-DR is necessary for effective T cell activation, APCs also influence the nature of the ensuing immune response through the secretion of cytokines. Therefore, the capacity of immunoconjugates to elicit cytokine secretion in human APCs following stimulation was investigated as described above.
# The capacity of these immunoconjugates to elicit cytokine secretion in human APCs following stimulation was investigated as described in Example 3 above.
# as §3, with “Cells and cell-free supernatants were analyzed after 18 hours via flow cytometry or ELISA.” left out
# protein A = protein A (Staphylococcus aureus, UniProt P38507); conditions: 50 ug/ml in PBS, overnight, SDS-PAGE of beads and supernatants
# Method: Beads were pelleted by centrifugation, supernatant was removed, and residual liquid was removed from the beads using a fine pipette tip. Non-reducing Laemmli sample buffer (100 ul) was added to the beads. Beads and supernatants were heated to 90° C. for 5 minutes and equal fractions were analyzed by SDS-PAGE (4-12% NUPAGE gel, MOPS buffer) followed by staining with Coomassie (GelCode™ Blue, ThermoFisher). Molecular weight standard is SeeBlue® Plus 2 marker (ThermoFisher LC5925).
# T1 sequence (P12314 16-374): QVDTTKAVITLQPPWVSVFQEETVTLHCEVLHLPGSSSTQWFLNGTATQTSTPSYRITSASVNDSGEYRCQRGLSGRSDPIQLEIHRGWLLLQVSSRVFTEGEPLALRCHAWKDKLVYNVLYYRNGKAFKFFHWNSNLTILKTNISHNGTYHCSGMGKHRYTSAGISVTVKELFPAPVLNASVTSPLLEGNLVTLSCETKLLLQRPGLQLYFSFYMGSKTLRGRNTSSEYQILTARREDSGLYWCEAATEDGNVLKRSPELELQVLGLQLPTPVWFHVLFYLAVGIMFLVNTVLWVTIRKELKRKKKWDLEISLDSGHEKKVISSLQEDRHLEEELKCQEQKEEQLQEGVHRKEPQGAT
substance,measurement,setting,value
Rituximab [reference compound],CD86 upregulation on myeloid cells,[1]; compared with the corresponding unconjugated antibody unless the value names another comparator,the control does not
same,APC / myeloid / dendritic cell activation (overall),[1]; listed as unconjugated CD20 antibody,do not
same,binding to CD64,[2],comparable binding to CD64
same,cytokine secretion (overall),[3],do not
same,binding to protein A,protein A,bind to protein A
